Results taken from ChEMBL document CHEMBL4483862, “Open-source discovery of chemical leads for next-generation chemoprotective antimalarials” (2018).

Tested on: Plasmodium berghei
Assay: Luciferase/luciferin-expressing antifolate-resistant parasites were used to infect a culture of HepG2 cells that were pre-incubated with compounds. Infected hepatocytes emit light due to the luciferase reaction. Assay results are presented as the percent inhibition of light emission compared to control. […]
Type: functional
Conditions: sporozoite; for IC90: read-out: LUCIFERASE INFECTION ASSAY - IC90
[1] = read-out: LUCIFERASE INFECTION ASSAY - IC50

| SMILES | IC90 | IC50 [1] | also measured |
| --- | --- | --- | --- |
| Cc1nn(-c2cccc(Cl)c2)c2nc(-c3ccccc3)c(-c3nc4ccccc4s3)c(-c3cccnc3)c12 | > 10 µM | – | IC50 (HEPG2TOX_HILL_SLOPE 11.2, HEPG2TOX_R_SQUARED 0.958, read-out: LUCIFERASE INFECTION ASSAY - IC50): > 10 µM |
| COc1ccc(/C=C/C(=O)N2CCCC2c2cccs2)cc1S(=O)(=O)N1CCCCC1 (stereo not drawn) | > 10 µM | > 10 µM | – |
| OC[C@H]1O[C@@H](c2nc(-c3nc(-c4ccc5[nH]ccc5c4)no3)cs2)[C@H](O)[C@@H]1O | 1.55 µM | – | IC50 (PBLUC_HILL_SLOPE 1.16, PBLUC_R_SQUARED 0.583, read-out: LUCIFERASE INFECTION ASSAY - IC50): 0.232 µM |
| CN1C(=O)/C(=C\c2ccccc2[N+](=O)[O-])c2ccccc21 | > 10 µM | 9.31 µM | – |
| COc1ccc(S(=O)(=O)NC(C)(C)C)cc1C(C)(C)C | > 3.33 µM | – | IC50 (PBLUC_HILL_SLOPE 0.386, PBLUC_R_SQUARED 0.474, read-out: LUCIFERASE INFECTION ASSAY - IC50): 0.196 µM |
| Cc1cc2ccccn2c1C(=O)c1cccc2nc3ccccc3nc12 | > 10 µM | – | IC50 (PBLUC_HILL_SLOPE 2.29, PBLUC_R_SQUARED 0.419, read-out: LUCIFERASE INFECTION ASSAY - IC50): 7.29 µM |
| C=CCN(C(=O)CCc1ccc(S(=O)(=O)N2CCCCCC2)cc1)c1nc2c(s1)CCCC2 | > 10 µM | – | IC50 (HEPG2TOX_HILL_SLOPE 1.95, HEPG2TOX_R_SQUARED 0.844, PBLUC_HILL_SLOPE 2.62, PBLUC_R_SQUARED 0.304, read-out: LUCIFERASE INFECTION ASSAY - IC50): 8.2 µM |
| Cc1ccc(Sc2ccc(/C=c3\s/c(=C\C(=O)c4ccc(Cl)cc4)[nH]c3=O)cc2[N+](=O)[O-])cc1 | > 10 µM | > 10 µM | – |
| CCCN(CCC)c1ccc(C(C2C(=O)CC(C)(C)CC2=O)C2C(=O)CC(C)(C)CC2=O)cc1 | > 10 µM | – | IC50 (FFLUC_HILL_SLOPE 2.34, FFLUC_R_SQUARED 0.0441, PBLUC_HILL_SLOPE 3.18, PBLUC_R_SQUARED 0.551, read-out: LUCIFERASE INFECTION ASSAY - IC50): 5.61 µM |
| Cc1ccc(S(=O)(=O)N2CCN(CC(=O)N3N=C4/C(=C/c5cccs5)CCCC4C3c3cccs3)CC2)cc1 (stereo not drawn) | 4.41 µM | – | IC50 (HEPG2TOX_HILL_SLOPE 6.4, HEPG2TOX_R_SQUARED 0.688, PBLUC_HILL_SLOPE 11.3, PBLUC_R_SQUARED 0.553, read-out: LUCIFERASE INFECTION ASSAY - IC50): 3.64 µM |
| O=[N+]([O-])c1cnc(Sc2nnc(SCC3CC3)s2)s1 | > 9.93 µM | – | IC50 (PBLUC_HILL_SLOPE 11.6, PBLUC_R_SQUARED 0.0358, read-out: LUCIFERASE INFECTION ASSAY - IC50): 9.69 µM |
| O=C(CCc1ccc(-c2ccccc2)o1)Nc1nc(CN2CCCCC2)cs1 | > 10 µM | > 10 µM | – |
| O=C(Nc1ccc(-c2csc(NC(=O)c3c[nH]nc3-c3ccccc3)n2)cc1)c1ccccc1 | 7.36 µM | 2.42 µM | – |
| Cc1cc(C(=O)CN(C)S(=O)(=O)c2cccs2)c(C)n1-c1ccccn1 | > 10 µM | – | IC50 (PBLUC_HILL_SLOPE 0.948, PBLUC_R_SQUARED 0.586, read-out: LUCIFERASE INFECTION ASSAY - IC50): 2.02 µM |
| Cc1ccc(-n2c(C)cc(/C=C3\N=C4CCCCCN4C3=O)c2C)c(C)c1 | > 10 µM | > 10 µM | – |
| CCCn1c(=O)c2ccccc2n2c(SCc3nc(=O)c4ccc(C(=O)O)cc4[nH]3)nnc12 | > 10 µM | > 10 µM | – |
| O=[N+]([O-])c1cccc(-c2nnc3c4ccccc4nc(C(F)(F)F)n23)c1 | > 9.19 µM | – | IC50 (HEPG2TOX_HILL_SLOPE 7.76, HEPG2TOX_R_SQUARED 0.363, PBLUC_HILL_SLOPE 1.91, PBLUC_R_SQUARED 0.781, read-out: LUCIFERASE INFECTION ASSAY - IC50): 4.42 µM |
| CN(C)CCCOc1ccc(-c2ccc(C(C)(C)C)cc2)cn1 | > 10.6 µM | – | IC50 (PBLUC_HILL_SLOPE 0.428, PBLUC_R_SQUARED 0.727, read-out: LUCIFERASE INFECTION ASSAY - IC50): 0.0859 µM |
| Oc1ccc(Cl)cc1/C=C/c1ccc2cccc(O)c2n1 | 6.73 µM | – | IC50 (HEPG2TOX_HILL_SLOPE 5.53, HEPG2TOX_R_SQUARED 0.986, PBLUC_HILL_SLOPE 37.8, PBLUC_R_SQUARED 0.36, read-out: LUCIFERASE INFECTION ASSAY - IC50): 6.35 µM |
| CCc1ccc(NC(=O)CN(c2cccc3ccccc23)S(=O)(=O)c2ccc(C)c(C)c2)cc1 | > 10 µM | – | IC50 (FFLUC_HILL_SLOPE 1.69, FFLUC_R_SQUARED 0.486, read-out: LUCIFERASE INFECTION ASSAY - IC50): > 10 µM |
| c1cncc(-c2nc(Nc3ccc4n[nH]cc4c3)c3ccccc3n2)c1 | 3.39 µM | – | IC50 (HEPG2TOX_HILL_SLOPE 1.55, HEPG2TOX_R_SQUARED 0.922, PBLUC_HILL_SLOPE 123, PBLUC_R_SQUARED 0.319, read-out: LUCIFERASE INFECTION ASSAY - IC50): 3.33 µM |

| SMILES | IC90 | IC50 [1] | also measured |
| --- | --- | --- | --- |
| Cc1ccc(C)c(NC(=S)[C-](C(=O)c2ccc3c(c2)OCCO3)[n+]2ccccc2)c1 | > 10 µM | – | IC50 (PBLUC_HILL_SLOPE 1.61, PBLUC_R_SQUARED 0.831, read-out: LUCIFERASE INFECTION ASSAY - IC50): 5.38 µM |
| COc1ccc(-c2nnc(Nc3ccc4c(c3)c(=O)n(C)n4CC=C(C)C)[nH]2)cc1 | > 8.16 µM | > 8.16 µM | – |
| Cc1nn(Cc2ccccc2)c(Cl)c1C(=O)Nc1nnc(-c2ccccc2)o1 | 4.08 µM | – | IC50 (HEPG2TOX_HILL_SLOPE 1.65, HEPG2TOX_R_SQUARED 0.7, PBLUC_HILL_SLOPE 2.41, 3.47, PBLUC_R_SQUARED 0.702, 0.681, read-out: LUCIFERASE INFECTION ASSAY - IC50): 1.84 µM |
| CC1CCc2ccccc2N1CC(=O)c1cccn1C (stereo not drawn) | > 10 µM | – | IC50 (HEPG2TOX_HILL_SLOPE 5.07, HEPG2TOX_R_SQUARED 0.0101, read-out: LUCIFERASE INFECTION ASSAY - IC50): > 10 µM |
| CC1CCC(C(C)C)C(OCC(=O)NCc2ccc(NC(=O)c3ccco3)cc2)C1 (stereo not drawn) | > 10 µM | – | IC50 (PBLUC_HILL_SLOPE 3.59, PBLUC_R_SQUARED 0.694, read-out: LUCIFERASE INFECTION ASSAY - IC50): 6.09 µM |
| O=C(C1CC1)N1CCc2nc(NCc3cccc(Oc4ccccc4)c3)ncc2C1 | 7.02 µM | – | IC50 (HEPG2TOX_HILL_SLOPE 1.68, HEPG2TOX_R_SQUARED 0.88, PBLUC_HILL_SLOPE 2.35, PBLUC_R_SQUARED 0.234, read-out: LUCIFERASE INFECTION ASSAY - IC50): 2.75 µM |
| CNc1nc2cnc(Nc3ccc(SC)cc3)cc2n1Cc1ccc(OC)c(OC)c1 | > 10 µM | > 10 µM | – |
| CN(C)S(=O)(=O)c1ccc2oc(SCC(=O)Nc3cc(C(C)(C)C)no3)nc2c1 | 3.96 µM | – | IC50 (HEPG2TOX_HILL_SLOPE 11.6, HEPG2TOX_R_SQUARED 0.793, PBLUC_HILL_SLOPE 13.5, PBLUC_R_SQUARED 0.437, read-out: LUCIFERASE INFECTION ASSAY - IC50): 3.36 µM |
| c1cncc(-c2cn3c(-c4ccsc4)cnc3cn2)c1 | > 11.9 µM | > 11.9 µM | – |
| O=C(Nc1nc2ccccc2[nH]1)c1cc(-c2ccccn2)nc2ccccc12 | 9.7 µM | – | IC50 (PBLUC_HILL_SLOPE 9.86, PBLUC_R_SQUARED 0.717, read-out: LUCIFERASE INFECTION ASSAY - IC50): 7.76 µM |
| O=C(CN1c2cccc3cccc(c23)S1(=O)=O)Nc1ccc(-c2nc3ccccc3[nH]2)cc1 | > 10 µM | > 10 µM | – |
| Cc1cc(O)c(C(C)C)cc1NC1=NC(=O)S/C1=C\c1ccccc1OCC(=O)Nc1ccc(Cl)cc1 | 9.08 µM | – | IC50 (FFLUC_HILL_SLOPE 1.8, FFLUC_R_SQUARED 0.548, PBLUC_HILL_SLOPE 29.3, PBLUC_R_SQUARED 0.485, read-out: LUCIFERASE INFECTION ASSAY - IC50): 8.43 µM |
| COc1ccc(Nc2nccn3c(-c4cccc(NC(C)=O)c4)cnc23)cc1 | 0.122 µM | – | – |
| c1csc(-c2cnc3ccc(-c4ccc5c(c4)OCO5)nn23)c1 | > 10 µM | – | IC50 (HEPG2TOX_HILL_SLOPE 2.2, HEPG2TOX_R_SQUARED 0.859, PBLUC_HILL_SLOPE 2.18, PBLUC_R_SQUARED 0.249, read-out: LUCIFERASE INFECTION ASSAY - IC50): 4.56 µM |
| CCOC(=O)c1c(C)[nH]c(/C(C)=N/Nc2nc3ccccc3[nH]2)c1C | > 10 µM | – | IC50 (HEPG2TOX_HILL_SLOPE 6.05, HEPG2TOX_R_SQUARED 0.279, PBLUC_HILL_SLOPE 4.56, PBLUC_R_SQUARED 0.397, read-out: LUCIFERASE INFECTION ASSAY - IC50): 8.41 µM |
| CNc1nc2cnc(-c3ccc(F)c(Cl)c3)cc2n1Cc1ccc(OC)c(OC)c1 | 3.93 µM | – | IC50 (PBLUC_HILL_SLOPE 1.59, PBLUC_R_SQUARED 0.826, read-out: LUCIFERASE INFECTION ASSAY - IC50): 0.992 µM |
| O=C(CCN1CCN(c2ccc([N+](=O)[O-])cc2)CC1)N1CCN(c2ccccn2)CC1 | 4.57 µM | – | IC50 (HEPG2TOX_HILL_SLOPE 9.17, HEPG2TOX_R_SQUARED 0.128, PBLUC_HILL_SLOPE 14.9, PBLUC_R_SQUARED 0.446, read-out: LUCIFERASE INFECTION ASSAY - IC50): 3.94 µM |
| CCCCCCCOc1ccc(C(=O)CCC(=O)O)cc1 | > 11.3 µM | > 11.3 µM | – |
| CC(C)(C)c1ccc(C(=O)NC(=S)Nc2nc3c(s2)CCCC3)cc1 | 8.77 µM | – | IC50 (PBLUC_HILL_SLOPE 2.3, PBLUC_R_SQUARED 0.829, read-out: LUCIFERASE INFECTION ASSAY - IC50): 3.37 µM |
| CS(=O)(=O)N1CCCC(C(=O)NC(c2ccccc2)C2CCCCC2)C1 (stereo not drawn) | > 10 µM | > 10 µM | – |
| CCN(CC)CCn1c(NC(=O)c2cc3c(s2)CCCC3)nc2ccccc21 | > 10 µM | – | IC50 (PBLUC_HILL_SLOPE 4.87, PBLUC_R_SQUARED 0.309, read-out: LUCIFERASE INFECTION ASSAY - IC50): 6.91 µM |
